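In this assay, cells in 96-well plates receive the compound at five concentrations for 48 hours. Endpoints are linearly interpolated between the surrounding concentrations. Here, GI50 denotes the concentration required for 50% inhibition of growth. Definition used: TGI = concentration required for complete inhibition of growth.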
Key:
Assay in all cases: NCI-60 cell line screen, 48 h
NCI/ADR-RES ovarian = test system: NCI/ADR-RES ovarian
T-47D breast = test system: T-47D breast
U251 CNS = test system: U251 CNS
HCT-15 colon = test system: HCT-15 colon
HL-60(TB) leukemia = test system: HL-60(TB) leukemia
MALME-3M melanoma = test system: MALME-3M melanoma
UACC-257 melanoma = test system: UACC-257 melanoma
SK-MEL-2 melanoma = test system: SK-MEL-2 melanoma
HS 578T breast = test system: HS 578T breast
A549 NSCLC = test system: A549 NSCLC
LOX IMVI melanoma = test system: LOX IMVI melanoma
SF-295 CNS = test system: SF-295 CNS
MOLT-4 leukemia = test system: MOLT-4 leukemia
MDA-MB-231 breast = test system: MDA-MB-231 breast
OVCAR-5 ovarian = test system: OVCAR-5 ovarian
COLO 205 colon = test system: COLO 205 colon
SNB-75 CNS = test system: SNB-75 CNS
RPMI-8226 leukemia = test system: RPMI-8226 leukemia
PC-3 prostate = test system: PC-3 prostate
ACHN renal = test system: ACHN renal
OVCAR-3 ovarian = test system: OVCAR-3 ovarian
SR leukemia = test system: SR leukemia
KM12 colon = test system: KM12 colon
HOP-62 NSCLC = test system: HOP-62 NSCLC
NCI-H226 lung = test system: NCI-H226 lung
786-0 renal = test system: 786-0 renal
IGROV1 ovarian = test system: IGROV1 ovarian
A498 renal = test system: A498 renal
TK-10 renal = test system: TK-10 renal
MDA-MB-435 = test system: MDA-MB-435
SN12C renal = test system: SN12C renal
SF-268 CNS = test system: SF-268 CNS
HT29 colon = test system: HT29 colon
CCRF-CEM leukemia = test system: CCRF-CEM leukemia
DU-145 prostate = test system: DU-145 prostate
HCC-2998 colon = test system: HCC-2998 colon
SW-620 colon = test system: SW-620 colon
SK-MEL-28 melanoma = test system: SK-MEL-28 melanoma
SNB-19 CNS = test system: SNB-19 CNS
SF-539 CNS = test system: SF-539 CNS
RXF 393 renal = test system: RXF 393 renal
HCT-116 colon = test system: HCT-116 colon
UACC-62 melanoma = test system: UACC-62 melanoma
NCI-H460 lung = test system: NCI-H460 lung
BT-549 breast = test system: BT-549 breast
UO-31 renal = test system: UO-31 renal
MCF7 breast = test system: MCF7 breast
NCI-H522 lung = test system: NCI-H522 lung
CAKI-1 renal = test system: CAKI-1 renal
SK-MEL-5 melanoma = test system: SK-MEL-5 melanoma
SK-OV-3 ovarian = test system: SK-OV-3 ovarian
HOP-92 NSCLC = test system: HOP-92 NSCLC
NCI-H23 lung = test system: NCI-H23 lung
M14 melanoma = test system: M14 melanoma
OVCAR-8 ovarian = test system: OVCAR-8 ovarian

Cc1ccc(C)c(NC2=C(Cl)C(=O)c3nc(C)ccc3C2=O)c1
GI50 (NCI/ADR-RES ovarian): 1330 nM | TGI (NCI/ADR-RES ovarian): 5020 nM | GI50 (T-47D breast): 1260 nM | TGI (T-47D breast): 3720 nM | GI50 (U251 CNS): 1290 nM | TGI (U251 CNS): 2780 nM | GI50 (HCT-15 colon): 848 nM | TGI (HCT-15 colon): 2560 nM | GI50 (HL-60(TB) leukemia): 1160 nM | TGI (HL-60(TB) leukemia): 3360 nM | GI50 (MALME-3M melanoma): 2120 nM | TGI (MALME-3M melanoma): 4170 nM | GI50 (UACC-257 melanoma): 1420 nM | TGI (UACC-257 melanoma): 2820 nM | GI50 (SK-MEL-2 melanoma): 1930 nM | TGI (SK-MEL-2 melanoma): 3890 nM | GI50 (HS 578T breast): 2050 nM | TGI (HS 578T breast): 5760 nM | GI50 (A549 NSCLC): 2100 nM | TGI (A549 NSCLC): 4750 nM | GI50 (LOX IMVI melanoma): 288 nM | TGI (LOX IMVI melanoma): 1590 nM | GI50 (SF-295 CNS): 1750 nM | TGI (SF-295 CNS): 3310 nM | GI50 (MOLT-4 leukemia): 633 nM | TGI (MOLT-4 leukemia): 4090 nM | GI50 (MDA-MB-231 breast): 969 nM | TGI (MDA-MB-231 breast): 2820 nM | GI50 (OVCAR-5 ovarian): 2410 nM | TGI (OVCAR-5 ovarian): 4510 nM | GI50 (COLO 205 colon): 2090 nM | TGI (COLO 205 colon): 4490 nM | GI50 (SNB-75 CNS): 1220 nM | TGI (SNB-75 CNS): 2640 nM | GI50 (RPMI-8226 leukemia): 708 nM | TGI (RPMI-8226 leukemia): 3340 nM | GI50 (PC-3 prostate): 1140 nM | TGI (PC-3 prostate): 2920 nM | GI50 (ACHN renal): 1450 nM | TGI (ACHN renal): 2910 nM | GI50 (OVCAR-3 ovarian): 292 nM | TGI (OVCAR-3 ovarian): 1150 nM | GI50 (SR leukemia): 695 nM | TGI (SR leukemia): 3230 nM | GI50 (KM12 colon): 1540 nM | TGI (KM12 colon): 3570 nM | GI50 (HOP-62 NSCLC): 1450 nM | TGI (HOP-62 NSCLC): 2990 nM | GI50 (NCI-H226 lung): 1670 nM | TGI (NCI-H226 lung): 4400 nM | GI50 (786-0 renal): 1790 nM | TGI (786-0 renal): 3740 nM | GI50 (IGROV1 ovarian): 1360 nM | TGI (IGROV1 ovarian): 3300 nM | GI50 (A498 renal): 2030 nM | TGI (A498 renal): 8140 nM | GI50 (TK-10 renal): 2610 nM | TGI (TK-10 renal): 4240 nM | GI50 (MDA-MB-435): 1410 nM | TGI (MDA-MB-435): 3270 nM | GI50 (SN12C renal): 1050 nM | TGI (SN12C renal): 3150 nM | GI50 (SF-268 CNS): 1420 nM | TGI (SF-268 CNS): 3290 nM | GI50 (HT29 colon): 3080 nM | TGI (HT29 colon): 8770 nM | GI50 (CCRF-CEM leukemia): 1610 nM | TGI (CCRF-CEM leukemia): 5800 nM | GI50 (DU-145 prostate): 1600 nM | TGI (DU-145 prostate): 3080 nM | GI50 (HCC-2998 colon): 1750 nM | TGI (HCC-2998 colon): 3250 nM | GI50 (SW-620 colon): 1790 nM | TGI (SW-620 colon): 4270 nM | GI50 (SK-MEL-28 melanoma): 1990 nM | TGI (SK-MEL-28 melanoma): 3700 nM | GI50 (SNB-19 CNS): 1490 nM | TGI (SNB-19 CNS): 3420 nM | GI50 (SF-539 CNS): 1650 nM | TGI (SF-539 CNS): 3120 nM | GI50 (RXF 393 renal): 1220 nM | TGI (RXF 393 renal): 2500 nM | GI50 (HCT-116 colon): 333 nM | TGI (HCT-116 colon): 1510 nM | GI50 (UACC-62 melanoma): 1560 nM | TGI (UACC-62 melanoma): 3260 nM | GI50 (NCI-H460 lung): 1880 nM | TGI (NCI-H460 lung): 3950 nM | GI50 (BT-549 breast): 1320 nM | TGI (BT-549 breast): 2660 nM | GI50 (UO-31 renal): 1250 nM | TGI (UO-31 renal): 2640 nM | GI50 (MCF7 breast): 917 nM | TGI (MCF7 breast): 3010 nM | GI50 (NCI-H522 lung): 1920 nM | TGI (NCI-H522 lung): 4380 nM | GI50 (CAKI-1 renal): 1430 nM | TGI (CAKI-1 renal): 3030 nM | GI50 (SK-MEL-5 melanoma): 1500 nM | TGI (SK-MEL-5 melanoma): 2890 nM | GI50 (SK-OV-3 ovarian): 2740 nM | TGI (SK-OV-3 ovarian): 14600 nM | GI50 (HOP-92 NSCLC): 1840 nM | TGI (HOP-92 NSCLC): 3780 nM | GI50 (NCI-H23 lung): 1260 nM | TGI (NCI-H23 lung): 3920 nM | GI50 (M14 melanoma): 1460 nM | TGI (M14 melanoma): 2900 nM | GI50 (OVCAR-8 ovarian): 1790 nM | TGI (OVCAR-8 ovarian): 6010 nM
